From patent US20230399303A1, “Macrophage Migration Inhibitory Factor Inhibitors, and Methods of Making and Using Same” (YALE UNIVERSITY, priority 2020, published 2023)

Molecular target: T1, MIF (Homo sapiens, UniProt P14174)
T1 sequence (P14174 2-115 limits assumed): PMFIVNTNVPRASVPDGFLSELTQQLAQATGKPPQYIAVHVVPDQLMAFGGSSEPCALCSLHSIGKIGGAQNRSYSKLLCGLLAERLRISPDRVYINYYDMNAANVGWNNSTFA
Assay: Competitive fluorescence polarization (FP) assay with tracer ligand B
Type: binding
Details: MIF Inhibition by Compounds of formula (Ia); Kd calculated from the IC50 of the competitive FP assay, fluorescent ligand B as tracer
Procedure: Determination of the affinities for A and B by FP assay. Determination of Kd values for the tracers followed previously reported protocols for other proteins. Experiments are carried out by quadruplicates in three independent experiments. In a flat black bottom 96 well plate (Corning), add to the third column 300 μL of 1.8 μM MIF in FP buffer (20 mM HEPES, 150 mM NaCl, 0.01% Tween-20, pH 7.4). From this column, using a multichannel pipette make serial dilutions (1:2) into the following wells to a total volume of 150 μL. First column contains 200 μL buffer and is used as a blank, while second column contains 150 μL buffer. 2 μL of DMSO are added to each well to keep 1% of DMSO, followed by the addition of 16.7 nM ligand A or B (48 μL) except first column (blank). Fluorescence polarization is measured at λexc=485±20 nm, λem=535±25 nm using an Infinite F500 plate reader until no FP variation was observed (typically 1 h). From the lowest and highest FP values (tracer free and tracer fully bound to MIF) we calculated the fraction of ligand bound to the protein to ligand total (Lb/Lt) for each concentration of MIF.
Competitive FP assay. In order to calculate the Kd values of the unlabeled compounds, competitive assays were carried out in quadruplicates in three independent experiments. In a flatblack bottom 96 well plate (Corning) 140 μL of FP buffer are added to columns 3-12. First column contains 200 μL buffer (blank), while second column contains 150 μL FP buffer. 10 μL of 1.1 μM MIF are added to columns 3-12 followed by the addition of 2 μL of inhibitor in DMSO at 9 different concentrations. 2 μL of DMSO are added to columns 1-3. After 20 min of incubation at rt 48 μL of 16.7 nM ligand B are added to columns 2-12 and fluorescencepolarization was measured at λexc=485±20 nm, λem=535±25 nm for 1 h. Data are analyzed by a least-squares non-linear fit, generated using Prism 6 in order to determine the compound's IC50. Kd values for each inhibitor are calculated using the following equation based on the IC50, Kd of the tracer (K^t), total (Lt) and bound (Lb) tracer, as well as total MIF concentration (Pt). Samples of 4-IPP and Pontamine Sky Blue were purchased both from Tocris and Santa Cruz Biotechnology.

| SMILES | Kd [nM] |
| --- | --- |
| COCCOc1ccc(N2Cc3ccc(O)cc3OC2=O)cc1 [Compound C1] | 6 ± 1 |
| COCCOCCOc1ccc(N2Cc3ccc(O)cc3OC2=O)cc1 [Compound C2] | 16 ± 5 |
| O=C1Oc2cc(O)ccc2CN1c1ccc(OCCOCCN2CCOCC2)cc1 [Compound C3, 7-Hydroxy-3-(4-(2-(2-morpholinoethoxy)ethoxy)phenyl)-3,4-dihydro-2H-benzo[e][1,3]oxazin-2-one] | 23 ± 13 |
| O=C(O)CCCOc1ccc(N2Cc3ccc(O)cc3OC2=O)cc1 [Compound C4] | 22 ± 8 |
| O=C1Oc2cc(O)ccc2CN1c1ccc(C23CC4CC(CC(C4)C2)C3)cc1 [Compound C6] | 828 ± 44 |
| O=C1Oc2cc(O)ccc2CN1c1ccc(OCCOCCOCCN2CCOCC2)cc1 [Compound C7] | 23 ± 6 |
| O=C1Oc2cc(O)ccc2CN1c1ccc(OCCN2CCOCC2)cc1 [Compound C8, 7-Hydroxy-3-(4-(2-morpholinoethoxy)phenyl)-3,4-dihydro-2H-benzo[e][1,3]oxazin-2-one] | 12 ± 1 |
| O=C1Oc2cc(O)ccc2CN1c1ccc(OCCOCCOc2cccc(N3CCOCC3)c2)cc1 [Compound C9] | 53 ± 7 |
| O=C1Oc2cc(O)ccc2CN1c1ccc(OCCOCCN2CCOc3ccccc32)cc1 [Compound C10, 3-(4-(2-(2-(2,3-Dihydro-4H-benzo[b][1,4]oxazin-4-yl)ethoxy)ethoxy)phenyl)-7-hydroxy-3,4-dihydro-2H-benzo[e][1,3]oxazin-2-one] | 16 ± 1 |
